Patent US20240246964A1 (Arbutus Biopharma Corporation, priority 2021, published 2024)
Values belong to the molecule of their own block, whether it stands above or below them.

Biological target: human PD-L1 (Homo sapiens (Human), UniProt Q9NZQ7)
Test: T cell activation luciferase reporter cell culture system (T Cell Activation Assay)
Format: cell-based
Details: luciferase reporter assay; PD-L1 aAPC/CHO-K1 cells with PD-1 effector Jurkat T cells

Chain of human PD-L1 (Q9NZQ7 19-290): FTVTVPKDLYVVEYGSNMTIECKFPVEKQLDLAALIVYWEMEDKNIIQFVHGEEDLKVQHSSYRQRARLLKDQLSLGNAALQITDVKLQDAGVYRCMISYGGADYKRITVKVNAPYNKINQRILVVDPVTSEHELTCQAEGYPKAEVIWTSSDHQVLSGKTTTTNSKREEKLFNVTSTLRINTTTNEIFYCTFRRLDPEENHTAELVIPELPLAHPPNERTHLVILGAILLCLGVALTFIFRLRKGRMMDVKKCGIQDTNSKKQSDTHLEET

SMILES: COc1cc(-c2nccc(-c3cccc(-c4ccc(CNC5CCOCC5)c(OC)n4)c3Cl)c2Cl)cc(F)c1CNC1CCOCC1 [Example 348, N-((6-(2-Chloro-3-(3-chloro-2-(3-fluoro-5-methoxy-4-(((tetrahydro-2H-pyran-4-yl)amino)methyl)phenyl)pyridin-4-yl)phenyl)-2-methoxypyridin-3-yl)methyl)tetrahydro-2H-pyran-4-amine]
- EC50: 28.9 nM

SMILES: COc1nc(-c2cccc(-c3ccnc(-c4cc(OC)c5nc(CN6CC(C(=O)O)C6)cn5c4)c3Cl)c2Cl)ccc1CNC[C@@H]1CCC(=O)N1 [Example 350, (S)-1-((6-(3-Chloro-4-(2-chloro-3-(6-methoxy-5-((((5-oxopyrrolidin-2-yl)methyl)amino)methyl)pyridin-2-yl)phenyl)pyridin-2-yl)-8-methoxyimidazo[1,2-a]pyridin-2-yl)methyl)azetidine-3-carboxylic acid]
- EC50: 89.2 nM

SMILES: COc1cc(-c2nccc(-c3cccc(-c4ccc(CNC5CCN(C(=O)C6CCC6)CC5)c(OC)n4)c3Cl)c2Cl)ccc1CNC1CCN(C(=O)C2CCC2)CC1 [Example 352, (4-(((6-(2-Chloro-3-(3-chloro-2-(4-(((1-(cyclobutanecarbonyl)piperidin-4-yl)amino)methyl)-3-methoxyphenyl)pyridin-4-yl)phenyl)-2-methoxypyridin-3-yl)methyl)amino)piperidin-1-yl)(cyclobutyl)methanone]
- EC50: 134 nM

SMILES: COc1cc(-c2nccc(-c3cccc(-c4ccc(CNC5CC(=O)NC(=O)C5)c(OC)n4)c3Cl)c2Cl)ccc1CNC1CC(=O)NC(=O)C1 [Example 359, 4-(((6-(2-Chloro-3-(3-chloro-2-(4-(((2,6-dioxopiperidin-4-yl)amino)methyl)-3-methoxyphenyl)pyridin-4-yl)phenyl)-2-methoxypyridin-3-yl)methyl)amino)piperidine-2,6-dione]
- EC50: 40.4 nM

SMILES: COc1cc(-c2nccc(-c3cccc(-c4ccc(CNC5CCN(C(C)=O)CC5)c(OC)n4)c3Cl)c2Cl)ccc1CN[C@H]1CC[C@H](O)CC1 [Example 360, 1-(4-(((6-(2-Chloro-3-(3-chloro-2-(4-((((1r,4r)-4-hydroxycyclohexyl)amino)methyl)-3-methoxyphenyl)pyridin-4-yl)phenyl)-2-methoxypyridin-3-yl)methyl)amino)piperidin-1-yl)ethan-1-one]
- EC50: 31 nM

SMILES: COc1cc(-c2nccc(-c3cccc(-c4ccc(CNC5CCN(C(C)=O)CC5)c(OC)n4)c3Cl)c2Cl)ccc1CN1CC2(CC(O)C2)C1 [Example 361, 1-(4-(((6-(2-Chloro-3-(3-chloro-2-(4-((6-hydroxy-2-azaspiro[3.3]heptan-2-yl)methyl)-3-methoxyphenyl)pyridin-4-yl)phenyl)-2-methoxypyridin-3-yl)methyl)amino)piperidin-1-yl)ethan-1-one]
- EC50: 40.5 nM

SMILES: COc1cc(-c2nccc(-c3cccc(-c4ccc(CNC5CCN(C(C)=O)CC5)c(OC)n4)c3C)c2C)ccc1CNC1CCN(C(C)=O)CC1 [Example 363, 1-(4-(((6-(3-(2-(4-(((1-Acetylpiperidin-4-yl)amino)methyl)-3-methoxyphenyl)-3-methylpyridin-4-yl)-2-methylphenyl)-2-methoxypyridin-3-yl)methyl)amino)piperidin-1-yl)ethan-1-one]
- EC50: 400 nM

SMILES: COc1cc(-c2nccc(-c3cccc(-c4ccc(CN[C@H]5CC[C@H](O)CC5)c(OC)n4)c3Cl)c2Cl)ccc1CN[C@H]1CC[C@H](O)CC1 [Example 364, (1r,4r)-4-(((6-(2-Chloro-3-(3-chloro-2-(4-((((1r,4r)-4-hydroxycyclohexyl)amino)methyl)-3-methoxyphenyl)pyridin-4-yl)phenyl)-2-methoxypyridin-3-yl)methyl)amino)cyclohexan-1-ol]
- EC50: 28.5 nM

SMILES: COc1cc(-c2nccc(-c3cccc(-c4ccc(CNC5CC6(COC6)C5)c(OC)n4)c3Cl)c2Cl)ccc1CNC1CC2(COC2)C1 (stereo not shown) [Example 365, N-(4-(4-(3-(5-(((2-Oxaspiro[3.3]heptan-6-yl)amino)methyl)-6-methoxypyridin-2-yl)-2-chlorophenyl)-3-chloropyridin-2-yl)-2-methoxybenzyl)-2-oxaspiro[3.3]heptan-6-amine]
- EC50: 19.9 nM

SMILES: COc1cc(-c2nccc(-c3cccc(-c4ccc(CN5CC6(C5)CN(C(C)=O)C6)c(OC)n4)c3Cl)c2C)ccc1CN1CC2(C1)CN(C(C)=O)C2 [Example 369, 1-(6-((6-(3-(2-(4-((6-Acetyl-2,6-diazaspiro[3.3]heptan-2-yl)methyl)-3-methoxyphenyl)-3-methylpyridin-4-yl)-2-chlorophenyl)-2-methoxypyridin-3-yl)methyl)-2,6-diazaspiro[3.3]heptan-2-yl)ethan-1-one]
- EC50: 369 nM

SMILES: COc1cc(-c2nccc(-c3cccc(-c4ccc(CNC5CCN(C(C)=O)CC5)c(OC)n4)c3Cl)c2Cl)ccc1CNC1CCN(C(=O)C(C)C)CC1 [Example 371, 1-(4-((4-(4-(3-(5-(((1-acetylpiperidin-4-yl)amino)methyl)-6-methoxypyridin-2-yl)-2-chlorophenyl)-3-chloropyridin-2-yl)-2-methoxybenzyl)amino)piperidin-1-yl)-2-methylpropan-1-one]
- EC50: 48.7 nM

SMILES: COc1cc(-c2nccc(-c3cccc(-c4ccc(CNC5CCN(S(C)(=O)=O)CC5)c(OC)n4)c3Cl)c2Cl)ccc1CNC1CCN(S(C)(=O)=O)CC1 [Example 372, N-((6-(2-Chloro-3-(3-chloro-2-(3-methoxy-4-(((1-(methylsulfonyl)piperidin-4-yl)amino)methyl)phenyl)pyridin-4-yl)phenyl)-2-methoxypyridin-3-yl)methyl)-1-(methylsulfonyl)piperidin-4-amine]
- EC50: 23.5 nM

Now from value to molecule:

- EC50: 38.3 nM
SMILES: COc1cc(-c2nccc(-c3cccc(-c4ccc(CNC5CCS(=O)(=O)CC5)c(OC)n4)c3Cl)c2Cl)cc(F)c1CNC1CCS(=O)(=O)CC1 [Example 349, 4-(((6-(2-Chloro-3-(3-chloro-2-(4-(((1,1-dioxidotetrahydro-2H-thiopyran-4-yl)amino)methyl)-3-fluoro-5-methoxyphenyl)pyridin-4-yl)phenyl)-2-methoxypyridin-3-yl)methyl)amino)tetrahydro-2H-thiopyran 1,1-dioxide]

- EC50: 146 nM
SMILES: COc1nc(-c2cccc(-c3ccnc(-c4cc(OC)c5nc(CNCCC6(C(=O)O)CC6)cn5c4)c3Cl)c2Cl)ccc1CNC[C@@H]1CCC(=O)N1 [Example 351, (S)-1-(2-(((6-(3-Chloro-4-(2-chloro-3-(6-methoxy-5-((((5-oxopyrrolidin-2-yl)methyl)amino)methyl)pyridin-2-yl)phenyl)pyridin-2-yl)-8-methoxyimidazo[1,2-a]pyridin-2-yl)methyl)amino)ethyl)cyclopropane-1-carboxylic acid]

- EC50: 26.3 nM
SMILES: COc1cc(-c2nccc(-c3cccc(-c4ccc(CNC[C@H]5CCC(=O)N5)c(OC)n4)c3Cl)c2Cl)ccc1CNC[C@H]1CCC(=O)N1 [Example 354, (R)-5-((((6-(2-Chloro-3-(3-chloro-2-(3-methoxy-4-(((((R)-5-oxopyrrolidin-2-yl)methyl)amino)methyl)phenyl)pyridin-4-yl)phenyl)-2-methoxypyridin-3-yl)methyl)amino)methyl)pyrrolidin-2-one]

- EC50: 25.5 nM
SMILES: COc1cc(-c2nccc(-c3cccc(-c4ccc(CN5CCC(NC(C)=O)CC5)c(OC)n4)c3Cl)c2Cl)ccc1CNC[C@H]1CCC(=O)N1 [Example 356, (R)—N-(1-((6-(2-Chloro-3-(3-chloro-2-(3-methoxy-4-((((5-oxopyrrolidin-2-yl)methyl)amino)methyl)phenyl)pyridin-4-yl)phenyl)-2-methoxypyridin-3-yl)methyl)piperidin-4-yl)acetamide]

- EC50: 9.1 nM
SMILES: COc1cc(-c2nccc(-c3cccc(-c4ccc(CN5CCC(NC(C)=O)CC5)c(OC)n4)c3Cl)c2Cl)ccc1CNC[C@@H]1CCC(=O)N1 [Example 357, (S)—N-(1-((6-(2-Chloro-3-(3-chloro-2-(3-methoxy-4-((((5-oxopyrrolidin-2-yl)methyl)amino)methyl)phenyl)pyridin-4-yl)phenyl)-2-methoxypyridin-3-yl)methyl)piperidin-4-yl)acetamide]

- EC50: 261 nM
SMILES: CNCc1ccc(-c2nccc(-c3cccc(-c4ccc(CNC)c(OC)n4)c3C)c2C)cc1OC [Example 362, 1-(2-Methoxy-4-(4-(3-(6-methoxy-5-((methylamino)methyl)pyridin-2-yl)-2-methylphenyl)-3-methylpyridin-2-yl)phenyl)-N-methylmethanamine]

- EC50: 159 nM
SMILES: COc1cc(-c2nccc(-c3cccc4c3CC[C@@H]4Nc3nc(OC)c(CN4CC5(CNC(=O)C5)C4)nc3C(F)(F)F)c2Cl)ccc1CN1CC2(CNC(=O)C2)C1 [Example 366, (S)-2-(4-(3-Chloro-4-(1-((6-methoxy-5-((7-oxo-2,6-diazaspiro[3.4]octan-2-yl)methyl)-3-(trifluoromethyl)pyrazin-2-yl)amino)-2,3-dihydro-1H-inden-4-yl)pyridin-2-yl)-2-methoxybenzyl)-2,6-diazaspiro[3.4]octan-7-one]

- EC50: 412 nM
SMILES: COc1cc(-c2nccc(-c3cccc4c3CC[C@@H]4Nc3nc(OC)c(CN4CC5(C4)CN(C(C)=O)C5)nc3C(F)(F)F)c2Cl)ccc1CN1CC2(C1)CN(C(C)=O)C2 [Example 367, (S)-1-(6-((5-((4-(2-(4-((6-Acetyl-2,6-diazaspiro[3.3]heptan-2-yl)methyl)-3-methoxyphenyl)-3-chloropyridin-4-yl)-2,3-dihydro-1H-inden-1-yl)amino)-3-methoxy-6-(trifluoromethyl)pyrazin-2-yl)methyl)-2,6-diazaspiro[3.3]heptan-2-yl)ethan-1-one]

- EC50: 37.4 nM
SMILES: COc1cc(-c2nccc(-c3cccc(-c4ccc(CN5CC6(CNC(=O)C6)C5)c(OC)n4)c3Cl)c2C)ccc1CN1CC2(CNC(=O)C2)C1 [Example 368, 2-((6-(2-Chloro-3-(2-(3-methoxy-4-((7-oxo-2,6-diazaspiro[3.4]octan-2-yl)methyl)phenyl)-3-methylpyridin-4-yl)phenyl)-2-methoxypyridin-3-yl)methyl)-2,6-diazaspiro[3.4]octan-7-one]

- EC50: 41.2 nM
SMILES: COc1nc(-c2cccc(-c3ccnc(-c4cc(OC)c5nc(CN[C@H]6C[C@](C)(O)C6)nn5c4)c3Cl)c2Cl)ccc1CNC[C@@H]1CCC(=O)N1 [Example 370, (S)-5-((((6-(2-Chloro-3-(3-chloro-2-(2-((((1r,3r)-3-hydroxy-3-methylcyclobutyl)amino)methyl)-8-methoxy-[1,2,4]triazolo[1,5-a]pyridin-6-yl)pyridin-4-yl)phenyl)-2-methoxypyridin-3-yl)methyl)amino)methyl)pyrrolidin-2-one]
